As a reminder, the Ki is a measure of affinity in units of concentration, obtained from inhibition or displacement. Low readings indicate higher affinity, high ones lower affinity. By inhibition is commonly meant the relative decrease from the control value, in per cent. A high value points to strong suppression.

This passage reports Ki, inhibition and EC50 results from ChEMBL document CHEMBL1129800, “Cycloalkylpyranones and cycloalkyldihydropyrones as HIV protease inhibitors: exploring the impact of ring size on structure-activity relationships” (J Med Chem, 1996).

Molecules are shown by their SMILES. Where only a bound is given, the exact number is not on record here.

Assay [1] concerns the target Human immunodeficiency virus type 1 protease (Human immunodeficiency virus 1, UniProt Q72874). Description: Binding affinity towards HIV protease was determined.
Assay [2] deals with H9. Put plainly: Compound at 3 uM was tested for antiviral activity against HIV-1-infected H-9 cells. It is filed as functional. The following applies: Homo sapiens.
Assay [3] relates to H9. Put plainly: Effective dose for antiviral activity against HIV-1-infected H-9 cells. It is filed as functional. The following applies: Homo sapiens, read-out: ED50 (the source's name).

The molecule `CCC(C1=C(O)OC2CCCCCCC2C1=O)c1ccccc1` (stereo unspecified) registered a Ki in assay [1] of 1200 nM. Take `CCC(C1=C(O)OC2CCCCC2C1=O)c1cccc(NS(=O)(=O)c2ccc(C#N)cc2)c1` (stereo unspecified): the inhibition at 3 µM in the assay on H9 [2] was under 10%. In addition, the inhibition constant Ki in assay [1] came out at 15 nM. In the case of `CCC(C1=C(O)OC2CCCCC2C1=O)c1ccccc1` (stereo unspecified), the Ki in assay [1] amounted to 670 nM.

As to `CCC(C1=C(O)C2CCCCC2OC1=O)c1cccc(NS(=O)(=O)c2ccc(C#N)cn2)c1` (stereo unspecified), the EC50 with H9 [3] was found to be 950 nM. In assay [1], this molecule gave a Ki of 0.05 nM. For the molecule `CCC(c1ccccc1)c1c(O)c2c(oc1=O)CCC2` (stereo unspecified), in assay [1], the Ki is 700 nM.

`CCC(C1=C(O)OC2CCCC2C1=O)c1ccccc1` (stereo unspecified) showed a Ki in assay [1] of over 2000 nM. In assay [1], `CCC(c1ccccc1)c1c(O)c2c(oc1=O)CCCCCCC2` (stereo unspecified) gave an inhibition constant Ki of over 2000 nM. Consider `CC(C)(C)C(C1=C(O)OC2CCCCCCC2C1=O)c1cccc(NS(=O)(=O)c2ccc(C#N)cc2)c1` (stereo unspecified), for which the EC50 in the assay on H9 [3] turned out to be 2500 nM. This molecule also yielded a Ki in assay [1] of 0.2 nM. The molecule `CCC(c1ccccc1)c1c(O)c2ccccc2oc1=O` (stereo unspecified) [PHENPROCOUMON] registered a Ki in assay [1] of 800 nM. Same read-out and setting: under `CCC(c1ccccc1)c1c(O)c2c(oc1=O)CCCC2` (stereo unspecified) stands 1100 nM; under `CCC(C1=C(O)OC2CCCCCC2C1=O)c1ccccc1` (stereo unspecified), over 1200 nM. As to `CCC(c1cccc(NS(=O)(=O)c2ccc(C#N)cn2)c1)c1c(O)c2c(oc1=O)CCC2` (stereo unspecified), the EC50 in the assay on H9 [3] was 8600 nM. Moreover, the affinity in assay [1] corresponds to a Ki of 0.075 nM.
